US4605744A, “Imidazole derivatives” (Hoffmann-La Roche Inc., priority 1985, dated 1986)
Counter-ions that a name gives are not always drawn. Like-named read-outs stand apart in the source and are kept apart here.

Tests used:
Assay type in all cases: cell-based
S. pneumoniae 6301 = test: In vitro antibacterial activity (MIC); details: Streptococcus pneumoniae, 6301, S. pneumoniae 6301; read-out: MIC
In short: (§1)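 Broth microdilution in Mueller-Hinton broth, drug range 128 to 0.008 μg/ml; each well inoculated with 1.5 μl of a 10^-2 dilution of overnight culture. Sealed trays incubated overnight at 37° C. MIC is the lowest concentration showing no visible growth.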

E. cloacae 24 = test: In vitro antibacterial activity (MIC); details: Enterobacter cloacae, 24, E. cloacae 24; read-out: MIC
In short: as §1

P. mirabilis 190 = test: In vitro antibacterial activity (MIC); details: Proteus mirabilis, 190, P. mirabilis 190; read-out: MIC
In short: as §1

C. freundii 8ASM = test: In vitro antibacterial activity (MIC); details: Citrobacter freundii, 8ASM, C. freundii 8ASM; read-out: MIC
In short: as §1

E. cloacae P99 = test: In vitro antibacterial activity (MIC); details: Enterobacter cloacae, P99, E. cloacae P99
In short: as §1

K. pneumoniae 5096 = test: In vitro antibacterial activity (MIC)
In short: as §1

S. marcescens S3 = test: In vitro antibacterial activity (MIC); details: Serratia marcescens; S. marcescens S3; read-out: MIC
In short: as §1

E. cloacae 5699 = test: In vitro antibacterial activity (MIC); details: Enterobacter cloacae, 5699, E. cloacae 5699; read-out: MIC
In short: as §1

K. pneumoniae A = test: In vitro antibacterial activity (MIC); details: Klebsiella pneumoniae, K. pneumoniae A; read-out: MIC
In short: as §1

C. freundii CDC6 = test: In vitro antibacterial activity (MIC); details: Citrobacter freundii, CDC6, C. freundii CDC6; read-out: MIC
In short: as §1

P. mirabilis 90 = test: In vitro antibacterial activity (MIC); details: Proteus mirabilis, 90, P. mirabilis 90; read-out: MIC
In short: as §1

E. coli R-563 = test: In vitro antibacterial activity (MIC); details: Escherichia coli
In short: as §1

P. rettgeri ATCC 9250 = test: In vitro antibacterial activity (MIC); details: Providencia rettgeri, ATCC9250, P. rettgeri ATCC 9250; read-out: MIC
In short: as §1

P. mirabilis 503-1136 = test: In vitro antibacterial activity (MIC); details: Proteus mirabilis, 5031136, P. mirabilis 503-1136; read-out: MIC
In short: as §1

S. typhi P58A = test: In vitro antibacterial activity (MIC); details: Salmonella enterica, TYPHI
In short: as §1

P. vulgaris ATCC 6380 = test: In vitro antibacterial activity (MIC); details: Proteus vulgaris
In short: as §1

E. coli 257 = test: In vitro antibacterial activity (MIC, Mueller-Hinton broth)
Description: Drug dilutions are prepared in Mueller-Hinton broth ranging from 128 to 0.008 μg/ml. The diluted agents are dispensed in 100 μl amounts into the wells of a 96-well tray and used immediately or frozen at -10° to -70° C. until needed. Using an automated inoculator, 1.5 μl of a 10^-2 dilution of an overnight culture is added to each well of the tray. The tops of the trays are then sealed using transparent tape and incubated overnight at 37° C. The trays are examined with the aid of a viewer. The lowest concentration at which no growth is observed is considered to be the minimum inhibitory concentration (MIC).

S. pneumoniae 6302 = test: In vitro antibacterial activity (MIC); details: Streptococcus pneumoniae, 6302, S. pneumoniae 6302; read-out: MIC
In short: as §1

P. aeruginosa 8710 = test: In vitro antibacterial activity (MIC); details: Pseudomonas aeruginosa; P. aeruginosa 8710; read-out: MIC
In short: as §1

P. aeruginosa 503-56 = test: In vitro antibacterial activity (MIC); details: Pseudomonas aeruginosa, 50356, P. aeruginosa 503-56; read-out: MIC
In short: as §1

[1] = Klebsiella pneumoniae, K. pneumoniae 5096, read-out: MIC
[2] = R563, E. coli R-563, read-out: MIC
[3] = ATCC6380, P. vulgaris ATCC 6380, read-out: MIC
[4] = Escherichia coli, 257, E. coli 257, read-out: MIC

| Structure (SMILES) | MIC (E. cloacae 24) [µg/mL] | MIC (P. mirabilis 190) [µg/mL] | MIC (C. freundii 8ASM) [µg/mL] | MIC (E. cloacae P99) [µg/mL] | MIC (K. pneumoniae 5096; [1]) [µg/mL] | MIC (S. marcescens S3) [µg/mL] | MIC (E. cloacae 5699) [µg/mL] | MIC (K. pneumoniae A) [µg/mL] | MIC (C. freundii CDC6) [µg/mL] | MIC (P. mirabilis 90) [µg/mL] | MIC (E. coli R-563; [2]) [µg/mL] | MIC (P. rettgeri ATCC 9250) [µg/mL] | MIC (P. mirabilis 503-1136) [µg/mL] | MIC (S. typhi P58A) [µg/mL] | MIC (P. vulgaris ATCC 6380; [3]) [µg/mL] | MIC (E. coli 257; [4]) [µg/mL] | MIC (E. coli R-563; R563) [µg/mL] | also measured |
| --- | --- | --- | --- | --- | --- | --- | --- | --- | --- | --- | --- | --- | --- | --- | --- | --- | --- | --- |
| CC1(C)S[C@@H]2[C@H](N=CN3CCCC(c4ncc[nH]4)C3)C(=O)N2[C@H]1C(=O)O (stereo partly drawn) [P, [2S-(2alpha,5alpha,6beta)]-6-[[[3-(1H-imidazol-2-yl)-1-piperidinyl]methylene]amino]-3,3-dimethyl-7-oxo-4-thia-1-azabicyclo[3.2.0]heptane-2-carboxylicacid hydrochloride] | 8 | 4 | 2 | 8 | 64 | 8 | 8 | 2 | 4 | 8 | 2 | 4 | 64 | 2 | – | – | – | MIC (S. pneumoniae 6301): 1 µg/mL; MIC (P. vulgaris ATCC 6380; ATCC6380): 0.5 µg/mL; MIC (E. coli 257; Escherichia coli, 257): 2 µg/mL |
| CC1(C)S[C@@H]2[C@H](N=CN3CCC(Cc4ncc[nH]4)CC3)C(=O)N2[C@H]1C(=O)O [Q, [2S-(2alpha,5alpha,6beta)]-6-[[[4-(1H-imidazol-2-yl-methyl)-1-piperidinyl]methylene]amino]-3,3-dimethyl-7-oxo-4-thia-1-azabicyclo[3.2.0]heptane-2-carboxylic acid hydrochloride] | 0.5 | 0.25 | 0.062 | 8 | 128 | 0.125 | 4 | 0.062 | 64 | 0.5 | 0.062 | 16 | 8 | 8 | 0.016 | 0.062 | – | MIC (S. pneumoniae 6302): 2 µg/mL; MIC (P. aeruginosa 8710): 128 µg/mL |
| CC1(C)S[C@@H]2[C@H](N=CN3CCC(CCCn4ccnc4CO)CC3)C(=O)N2[C@H]1C(=O)O [R, [2S-(2alpha,5alpha,6beta)]-6-[[[4-[3-[2-(hydroxymethyl)-1H-imidazol-1-yl]propyl-1-piperidinyl]methylene]amino]-3,3-dimethyl-7-oxo-4-thia-1-azabicyclo[3.2.0]heptane-2-carboxylic acid hydrochloride 1.1 molar hydrate] | 0.25 | 0.062 | < 0.008 | 0.062 | – | 0.125 | 0.062 | < 0.008 | 0.062 | 0.5 | – | 0.062 | 4 | 0.062 | < 0.008 | 0.016 | 4 | MIC (K. pneumoniae 5096; Klebsiella pneumoniae, 5096, K. pneumoniae 5096): 8 µg/mL |
| CN(C)C=Nc1nccn1CCCC1CCN(C=N[C@@H]2C(=O)N3[C@@H]2SC(C)(C)[C@@H]3C(=O)O)CC1 [S, [2S-(2alpha,5alpha,6beta)]-6-[[[4-[3-[2-[[(dimethylamino)methylene]amino]-1H-imidazol-1-yl]propyl]-1-piperidinyl]methylene]amino]-3,3-dimethyl-7-oxo-4-thia-1-azabicyclo[3.2.0]heptane-2-carboxylic acid 1.7 molar hydrochloride 2.6 molar hydrate] | 1 | 1 | 0.125 | 1 | > 128 | 2 | 1 | 0.5 | 0.5 | 4 | – | 0.25 | 8 | 0.25 | 1 | 0.25 | 8 | MIC (P. aeruginosa 503-56): > 128 µg/mL |
